Measured values reported in ChEMBL document CHEMBL1201862, “PubChem BioAssay data set” (2004).
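Grown in 96-well plates, cells were treated for 48 hours with each compound at five concentrations. Insufficient inhibition: endpoint recorded as highest concentration tested. GI50 is the concentration that inhibits growth by half.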 Calls of active or inactive are those of the source. No stated cut-off is given here; in the data, active = GI50 up to about 1.1 µM and inactive = higher.

How the values were obtained:
Experiment in all cases: NCI tumour cell line growth inhibition, 48 h
[1] = tested on: NCI/ADR-RES
[2] = tested on: PC-3
[3] = tested on: M14
[4] = tested on: OVCAR-5
[5] = tested on: UO-31
[6] = tested on: BT-549
[7] = tested on: HCT-116
[8] = tested on: MDA-MB-435
[9] = tested on: NCI-H460
[10] = tested on: U-251
[11] = tested on: HOP-92
[12] = tested on: Hs-578T
[13] = tested on: MDA-N
[14] = tested on: T47D
[15] = tested on: IGROV-1
[16] = tested on: SF-539
[17] = tested on: SN12C
[18] = tested on: CCRF-CEM
[19] = tested on: MCF7
[20] = tested on: SF-268

Measured: GI50

CC(=O)NC1C(OCc2ccccc2)OC(CO)C(O)C1OCC(=O)N[C@@H](C)C(=O)N[C@H](CCC(=O)NCCCNc1ccc([N+](=O)[O-])c2[nH]c3ccccc3c(=O)c12)C(N)=O (stereo partly drawn)
inactive: [1] > 100 µM | [2] > 100 µM | [3] > 100 µM | [4] > 100 µM | [5] > 100 µM | [6] 38.4 µM | [7] 45.4 µM | [8] > 100 µM | [9] 46.1 µM | [10] 48.3 µM | [11] > 100 µM | [12] 26.2 µM | [13] > 100 µM | [14] > 100 µM | [15] 23.4 µM | [16] 53.2 µM | [17] > 100 µM | [18] > 100 µM

CCc1n[nH]c(=O)n1-n1c(C)ccc1C
inactive: [1] > 100 µM | [2] > 100 µM | [3] > 100 µM | [4] > 100 µM | [5] > 100 µM | [6] > 100 µM | [19] > 100 µM | [7] > 100 µM | [8] > 100 µM | [9] > 100 µM | [10] > 100 µM | [12] > 100 µM | [13] > 100 µM | [14] > 100 µM | [20] > 100 µM | [15] > 100 µM | [17] > 100 µM | [18] > 100 µM

COC1CC(OC2CCC3(C)C(=CCC4C3C(OC(C)=O)C(OC(=O)CC(C)C)C3(C)C(C(C)=O)CCC43O)C2)OC(C)C1OC1CC(OC)C(OC2CC(OC)C(OC3OC(C)C(O)C(OC)C3O)C(C)O2)C(C)O1 (stereo not drawn)
inactive: [2] 18.5 µM | [3] 38.7 µM | [4] 86.7 µM | [5] 26.1 µM | [6] 24.5 µM | [19] 21.9 µM | [7] 26.7 µM | [8] 25.1 µM | [9] 28.7 µM | [10] 37.8 µM | [11] 22.5 µM | [12] 49.8 µM | [13] 32.1 µM | [14] 38.2 µM | [20] 54.1 µM | [15] 32.4 µM | [16] 21.9 µM | [17] 34.8 µM | [18] 22.6 µM

NC1=Nc2ccccc2Sc2nc3ccccc3n21
inactive: [1] 27 µM | [2] 9.62 µM | [3] 5.46 µM | [4] 8.15 µM | [5] 7.5 µM | [6] 34.3 µM | [19] 5.53 µM | [7] 5.47 µM | [9] 17.2 µM | [10] 5.9 µM | [11] 22.7 µM | [12] 55.7 µM | [13] 5.13 µM | [14] 21.6 µM | [20] 18.4 µM | [15] 34.4 µM | [16] 21.1 µM | [17] 48.2 µM | [18] 3.33 µM

CCCCC(C(=O)NCCNC(=O)CCC(=O)N(C)O)C(=O)NCCNC(=O)CCC(=O)N(C)O
inactive: [1] > 100 µM | [2] > 100 µM | [3] > 100 µM | [4] > 100 µM | [5] > 100 µM | [6] > 100 µM | [19] > 100 µM | [7] > 100 µM | [8] > 100 µM | [9] > 100 µM | [10] > 100 µM | [11] > 100 µM | [13] > 100 µM | [14] > 100 µM | [15] > 100 µM | [16] > 100 µM | [17] > 100 µM | [18] > 100 µM

CN(C)c1ccc(/C=C/C(=O)N[C@@H]2C(=O)N3[C@@H]2SC(C)(C)[C@@H]3C(=O)O)cc1
inactive: [1] > 100 µM | [2] > 100 µM | [3] > 100 µM | [4] > 100 µM | [5] > 100 µM | [6] > 100 µM | [19] > 100 µM | [7] 58.9 µM | [8] > 100 µM | [9] > 100 µM | [10] > 100 µM | [12] > 100 µM | [13] > 100 µM | [14] > 100 µM | [20] > 100 µM | [16] > 100 µM | [17] > 100 µM | [18] > 100 µM

Brc1ccc2c(c1)-c1nc3nc4c(cc3cc1CC2)CCc1ccc(Br)cc1-4
inactive: [1] > 100 µM | [2] > 100 µM | [3] > 100 µM | [4] > 100 µM | [5] > 100 µM | [6] > 100 µM | [19] > 100 µM | [7] > 100 µM | [8] 5.65 µM | [9] > 100 µM | [10] > 100 µM | [11] > 100 µM | [13] > 100 µM | [14] > 100 µM | [20] > 100 µM | [15] > 100 µM | [16] > 100 µM | [17] > 100 µM
